Here are results for 3 compounds from patent US20150159222A1, “MARKERS ASSOCIATED WITH HUMAN DOUBLE MINUTE 2 INHIBITORS” (NOVARTIS AG, priority 2012, published 2015).

Data set [1] concerns SJSA-1 osteosarcoma line. The conditions noted are these: SJSA-1, amplified copies of the MDM2 gene; cited from earlier work.
In data set [2] the test system is mouse normal fibroblasts. Conditions: cited from earlier work.
Data set [3] relates to SJSA-1 cell line. Conditions: SJSA-1 xenografts in mouse; cited from earlier work.
The subject of data set [4] is human normal fibroblasts. The conditions noted are these: cited from earlier work.
The test system of data set [5] is p53 wild-type (SJSA-1 and HCT116 p53wt/wt cells) and p53 mutant cell lines (SAOS2 and HCT116 p53-/- cells). In words: Cell proliferation inhibition assay (YOPRO). The format is cell-based. Conditions: 72 hours; p53 wild-type vs p53 mutant cell lines. How it is done: Lucern, Switzerland). Briefly, cells are plated in 96-well plates overnight at 37° C. and are treated with increasing concentrations of MDM2i(1) or MDM2i(2) for 72 hours. Cell concentration in each well is then determined using the DNA-interacting fluorescent dye YOPRO according to the manufacturer's instructions and the fluorescent signal is measured using a Gemini-EM standard plate reader (Molecular Devices: Sunnyvale, Calif., USA).

Data set [6] has as its system CCLE cell lines. In words: Chemical sensitivity of the CCLE cell line panel. The format is cell-based. As for the experimental part: […]. The cell line panel is the one covered by the Cancer Cell Line Encyclopedia (CCLE) initiative (Barretina J., Caponigro G., Stransky N., Venkatesan K., et al. The Cancer Cell Line Encyclopedia enables predictive modeling of anticancer drug sensitivity. Nature 483:603-7, 2012). A detailed genomic, genetic and pharmacologic characterization was conducted on the CCLE cell lines.
p53 mutation status in CCLE cell lines is taken from a data source of gene-level genetic alterations, for example, point-mutations, insertions, deletions and complex genetic alterations, compiled from the Sanger center COSMIC data and internal sources including Exome Capture Sequencing. This comprises data from approximately 1,600 cancer-related genes over the CCLE cell lines.
[…]. […] From such in vitro chemical sensitivity data, the prediction that a cell would be sensitive to an MDM2i treatment was estimated to be 13%. […].

In data set [7] the test system is p21(CDKN1A). In words: p21(CDKN1A) protein in SJSA-1 xenograft tumors (immunohistochemistry). The format is in vivo, Harlan nude mice. As for the experimental part: SJSA-1 xenograft tumors were collected and a 3-4 mm slice out of the middle of the tumor was removed, transferred into pre-labelled histo-cassettes and immersion-fixed in neutral buffered formalin (NBF) 10% (v/v) (pH 6.8-7.2) (J. T. Baker, Winter Garden, Fla., USA), pre-cooled at 4° C. Tumors were then fixed at room temperature for 24 hours, followed by processing in the TPC 15Duo (Tissue Processing Center, Medite) for paraffinization. Subsequently, the tumor slices were embedded in paraffin and from each paraffin block several 3 μm thick sections were cut on a rotary microtome (Mikrom International AG, Switzerland), spread in a 48° C. water-bath, mounted on glass slides (SuperFrost Plus, Thermo Scientific:Waltham Mass., USA), and dried in an oven either at 37° C. overnight or at 60° C. for 30 min. Dry tissue section were processed for immunohistochemistry (IHC) staining. p21(CDKN1A) immunohistochemistry has been performed using the mouse monoclonal antibody clone SX118 from Dako (Cat. No. M7202 Dako: Carpenteria Calif., USA) at a dilution of 1:50. Immunohistochemistry has been performed on a Ventana Discovery XT automated immunostainer using the N-Histofine Mousestain Kit (Nichirei Bioscience Inc, Japan) in combination with the DABMap Kit chromogen system, omitting the SA-HRP solution (Ventana/Roche Diagnostics GmbH, Mannheim, Germany). […]

Data set [8] relates to SJSA-1 osteosarcoma cells. In words: SJSA-1 xenograft tumor growth. The format is in vivo, Harlan nude mice. The conditions noted are these: for T/C: 10-day treatment. As for the experimental part:
To further validate the predictive biomarkers disclosed in FIG. 3, in vivo human xenograft models either from human primary samples or from cell lines were directly injected and grown in tumors subcutaneously in mice and then assessed for MDM2i sensitivity. All the animals were allowed to adapt for 4 days and housed in a pathogen-controlled environment (5 mice/Type III cage) with access to food and water ad libitum. Animals were identified with transponders. Studies were performed according to procedures covered by permit number 1975 issued by the Kantonales Veterinaramt Basel-Stadt and strictly adhered to the Eidgenössisches Tierschutzgesetz and the Eidgenössische Tierschutzverordnung. Subcutaneous tumors were induced by concentrating 3.0×10^6 SJSA-1 osteosarcoma cells in 100 μl of PBS (without Ca^2+ and Mg^2+) and injecting in the right flank of Harlan nude mice. The administration of MDM2i began 12-14 days post cell injection. MDM2i was prepared immediately before each administration. MDM2i compounds were dissolved in 0.5% HPMC (hydroxypropylmethylcellulose) and were injected daily (q24h) at 25, 50 or 100 mg/kg. Tumor volumes (TVol), determined from caliper measurements (using the formula l×w×h×π/6) were measured three times per week. Tumor response was quantified by the change in tumor volume (endpoint minus starting value in mm^3) as the T/C, i.e.
In the case of a tumor regression, the tumor response was quantified by the percentage of regression of the starting TVoI, i.e.
The body-weight (BW) of the mice was measured three times per week allowing calculation at any particular time-point relative to the day of initiation of treatment (day 0) of both the percentage change in BW (Δ % BW). […].

The subject of data set [9] is C3A cells. In words: Western blot of p53 pathway proteins in C3A cells. The conditions noted are these: 4 hours. Format: cell-based. How it is done:
(§1) That the biomarkers in Table 2/FIG. 3 are reflective of a functional p53 pathway in MDM2i sensitive cells is verified in FIG. 4. […]. Whole cell lysates were prepared using a cell lysis buffer containing 50 mM Tris-HCl pH 7.5, 120 mM NaCl, 1 mM EDTA, 6 mM EGTA pH 8.5, 1% NP-40, 20 mM NaF, 1 mM PMSF and 0.5 mM Na-Vanadat, proteins were separated on NuPAGE 4-12% Bis-Tris Gel (Invitrogen # NP0322BOX, Lucerne; Switzerland), transferred onto Nitrocellulose Protran® BA 85 membranes (Whatman #10 401 261: Piscataway, N.J., USA) at 1.5 mA/cm^2 membrane for 2 h using a semi-dry blotting system, and immunoblotted with either an anti-phospho-p53 (Ser^15) (1/1000; Cell Signaling Technology #9284: Beverly, Mass., USA) rabbit polyclonal antibody, or an anti-p53 (Ab-6) (Pantropic, clone DO-1,) (1/1000; Calbiochem # OP43 San Diego, Calif., USA), an anti-MDM2 (Ab-1, clone IF2) (1/1000; Calbiochem # OP46), an anti-p21^WAF1(Ab-1, clone EA10) (1/500; Calbiochem # OP64: San Diego, Calif., USA) or an anti-a-Tubulin (Sigma # T5168: St. Louis, Mo., USA) mouse monoclonal antibodies, as indicated. […].

Data set [10] relates to p21(CDKN1A). In words: p21(CDKN1A) mRNA in SJSA-1 xenograft tumors (qRT-PCR). Format: in vivo, Harlan nude mice. How it is done: Briefly, total RNA was purified from cell pellets using the QIAshredder® (79654, Qiagen:Valencia Calif., USA) and RNeasy Mini Kit® (74106, Qiagen: Valencia Calif., USA) according to the manufacturer's instructions, with the exception that no DNA digestion was performed. Total RNA was eluted with 50 μL of RNase-free water. Total RNA was quantitated using the spectrophotometer ND-1000 Nanodrop® (Wilmington Del., USA). The qRT-PCR (Quantitative Reverse Transcriptase Polymerase Chain Reaction) was set up in triplicate per sample using the One-Step RT qPCR Master Mix Plus (RT-QPRT-032X, Eurogentec: Seraing, Belgium), with either control primers and primers for human p21(CDKN1A) (Hs00355782_m1, Applied Biosystems: Carlsbad Calif., USA) or mouse p21(CDKN1A) (Mm00432448_m1, Applied Biosystems: Carlsbad Calif., USA), namely TaqMan Gene Expression kit assays (20× probe dye FAM™ (or VIC)-TAMRA (or MGB); Applied Biosystems: Carlsbad Calif., USA). […] The number of cycles (CT) was determined, 2^−CT values were calculated, and the value normalized by dividing with the 2^−CT value obtained from the GAPDH control. Fold increase over control (i.e. DMSO- or vehicle-treated animals) was calculated and plotted in the bar graph.

Data set [11] deals with COLO 792 cells. In words: Western blot of p53 pathway proteins in COLO 792 cells. The format is cell-based. Conditions: 4 hours. How it is done: as §1
Setting [12] is: C3A cells, increasing concentrations.
The mark [13] stands for this setting: COLO 792 cells, increasing concentrations.

`COc1ccc(C2=N[C@@H](c3ccc(Cl)cc3)[C@@H](c3ccc(Cl)cc3)N2C(=O)N2CCNC(=O)C2)c(OC(C)C)c1` [Nutlin-3]: the proliferation and apoptosis result in data set [1] was “reduced proliferation and increased apoptosis”. For the same compound, the “proliferation and viability of non-cancerous cells” value is “the proliferation of the cells was slowed, they retained their viability” in data set [2] and “the proliferation of the cells was slowed, they retained their viability” in data set [4]. Besides, the “reduction of xenograft growth” value in [3] is 90%.

`COc1cc2c(cc1OC(C)C)[C@H](c1ccc(Cl)cc1)N(c1ccc(N(C)C[C@H]3CC[C@H](N4CCNC(=O)C4)CC3)cc1)C(=O)C2` [MDM2i(2)]: the tumor cell proliferation entry in data set [5] is on record as “hampering tumor cell proliferation in a p53-dependent manner”. Moreover, in [6] (CCLE panel), the “number of insensitive cell lines” value came to 309 and the “number of sensitive cell lines” value was 47. Besides, the “sensitivity of p53 mutated cell lines” value in [6] (p53 mutated CCLE cell lines) is “majority of p53 mutated cell lines are found insensitive”. Moreover, the “sensitivity of p53 wild type cell lines” value in data set [6] (p53 wild type CCLE cell lines) is “more than two-third of p53 wild type cell lines are sensitive”.

For the compound `COc1cc2c(cc1OC(C)C)[C@H](c1ccc(Cl)cc1)N(c1ccc(N(C)C[C@H]3CC[C@H](N4CCN(C)C(=O)C4)CC3)cc1)C(=O)C2` [MDM2i(1)], in data set [7], the “p21(CDKN1A) protein levels in tumors” value is reported as “significant dose-dependent induction of p21(CDKN1A) protein levels in tumors”. Besides, the T/C in [8] (25 mg/kg q24h) came to 50%; in [8] (50 mg/kg q24h), 3%. Further, in [8] (100 mg/kg q24h for 10 days), the tumor regression is on record as 65%. For the same compound, the p53 protein levels result in data set [9] (setting [12]) and in data set [11] (setting [13]) was “induces stabilization of p53 protein levels” each time. The phospho-p53 entry in data set [9] (setting [12]) and in [11] (setting [13]) was “no significant increase of phospho-p53” throughout. For the same compound, the “expression of p53 target genes p21(CDKN1A) and MDM2” value in data set [9] (C3A sensitive cells) is “induces a strong de novo expression of both p53 target genes p21(CDKN1A) and MDM2”; in [11] (COLO-792 insensitive cell line), “not in COLO-792 insensitive cell line”. Moreover, the “p21(CDKN1A) mRNA levels in tumors” value in data set [10] is “significant dose-dependent induction of p21(CDKN1A) mRNA levels in tumors”. The tumor cell proliferation entry in [5] was “hampering tumor cell proliferation in a p53-dependent manner”.
